Results from a melting point compilation (Tetko et al.; mined from patent text by program, amines drawn as free bases though some values may be those of a salt).

Row | Compound | melting point [°C]
1 | C[C@H](NC(=O)c1c(CBr)c(-c2ccccc2)nc2ccccc12)C1CCCCC1 | 182 to 184
2 | CCOC(=O)CSc1nc(C(C)(C)C)n[nH]1 | 93
3 | CNC(=O)N1CC(Oc2ccc(Cl)c(Cl)c2)C1 | 158 to 159
4 | COc1ccc(COc2ccc(NC(C)=O)cc2C(=O)C=Cc2ccc(OCc3ccccc3)cc2)cc1 | 201 to 202
5 | c1ccc2c(CN3CCN(c4ccc5c(c4)OCO5)CC3)n[nH]c2c1 | 149 to 150
6 | COC(=O)NC1CCc2sccc2C1 (configuration not stated) | 108 to 109
7 | O=c1c(-c2ccccc2)cc(CO)c2n1CCc1ccsc1-2 | 199 to 200
8 | CCN1CCN(c2ccc(-c3[nH]nc4c3C(=O)c3c(NC(=O)NN5CCOCC5)cccc3-4)cc2)CC1 | 245
9 | COc1ccc(C2(C34CC5CC(CC(C5)C3)C4)N=C(N)N(C)C2=O)cc1OC (configuration not stated) | 130
10 | CCCCOc1ccc(-c2ncc(Br)cn2)cn1 | 134 to 138
11 | O=C1Cc2c(Cl)cccc2Sc2cc(F)ccc21 | 109 to 111
12 | COc1ccc(Oc2ccc(OC(=O)N3CCC(C)CC3)cc2)cc1 | 81 to 84
13 | CCCCCCCCCCCCCCc1c[nH]c(C(=O)O)c1 | 148 to 150
14 | CNc1ccc([N+](=O)[O-])c(C(=O)NCC2CCN(C(c3ccccc3)c3ccccc3)CC2)c1 | 185
15 | CC(=O)OC1C(Oc2cc(C)cc(O)c2C(=O)CCc2ccc3occc3c2)OC(CO)C(O)C1O (configuration not stated) | 160
16 | CCC1(CCCCCC(=O)O)C(=O)NC(=O)NC1=O | 185 to 192
17 | O=c1[nH]c(-c2ccccc2Br)nc2c1CCCC2 | 193
18 | COC1CC(N)C(O)C(C)O1 (configuration not stated) | 130
19 | Cc1ccc(CO[C@H]2CO[C@@H](c3ccccc3)OC2)cc1C | 79 to 80
20 | CC(C)(C)c1ccc(OC2CN(C(c3ccccc3)c3ccccc3)C2)cc1 | 126 to 127
21 | CNC(=O)c1cc(F)cc(Cl)c1Oc1cccc(OC)c1C | 127 to 128
22 | CCOC(=O)c1nnc2c(sc3nc(C)ccc32)c1OCC | 158 to 160
23 | CC(C)(C)c1ccc(C(=O)CCC(=O)O)cc1 | 117 to 120
24 | CN(Cc1ccc(Cl)cc1)C(=O)CC12CC3CC(CC(C3)C1)C2 | 75 to 76
25 | NS(=O)(=O)c1ccc(-c2ccc(Cl)n2-c2ccc(Cl)cc2Cl)cc1 | 186 to 187
26 | CCNC(=O)N(C)Cc1cccc2c1CN(C1CCC(=O)NC1=O)C2=O (configuration not stated) | 183 to 185

Row | Compound | melting point [°C]
27 | CCOC(=O)C1=C(C2CC2)Nc2n[nH]cc2C1c1ccccc1Br (configuration not stated) | 168 to 170
28 | COc1nc(C)cnc1NS(=O)(=O)c1cccnc1-c1ccc(I)cc1 | 180 to 183
29 | NC(=O)C(OC(=O)Nc1cccc(Cl)c1)(C(N)=O)c1ccccc1 | 196 to 198
30 | CC(=O)OC(=O)c1cc(CCl)ccc1O | 119 to 121
31 | CC(C)c1ccnc(C(=O)c2[nH]c3ccc(Cl)cc3c2CC(=O)O)c1 | 227 to 228
32 | CNC(=O)N(OC)c1ccccc1COc1ccc2c(c1)OCC2=NOC | 109 to 112
33 | COc1cc(CN2Cc3cc(OC)c(O)cc3CC2C)cc(OC)c1 (configuration not stated) | 155 to 158
34 | CC(=O)NNC(=O)c1ccccc1 | 172 to 174
35 | CC1CCC2(OC1)OC1CC3C4CCC5CC(=O)CCC5(C)C4CCC3(C)C1C2C (configuration not stated) | 209 to 211
36 | N#Cc1cc([N+](=O)[O-])ccc1N1CCC(NCCO)CC1 | 115
37 | CC(c1oc2ccc(F)cc2c(=O)c1-c1ccccc1F)n1cnc2c(N)ncnc21 (configuration not stated) | 245 to 248
38 | CCCCCCCCC(=O)Nc1cc(C)c(O)c(C)c1 | 100 to 101
39 | Cc1cc(OCC(O)CNC(C)(C)C)ccc1C=O (configuration not stated) | 82 to 84
40 | O=C(NC(CS)Cc1ccccc1)N1CCOCC1 (single isomer, unassigned; (+)) | 84
41 | COC(=O)/C=C/c1ccc(CCC(C)NCC(O)c2cccc(Cl)c2)cc1 (configuration not stated) | 87 to 89
42 | O=C(CCc1ccccc1C(=O)O)Nc1cccc(/C=C/c2nc(C3CCC3)cs2)c1 | 238 to 239
43 | NC1=CC=C(c2ccccc2)CC1(Cl)C(O)(C1CC1)C1CC1 (configuration not stated) | 90 to 92
44 | c1ccc2c(c1)OC(c1ccc(OCCN3CCCCC3)cc1)c1c-2sc2ccccc12 (configuration not stated) | 107
45 | CC1(CN2CCN(C(=O)Cc3ccc(Cl)c(Cl)c3)CC2)Cn2cc([N+](=O)[O-])nc2O1 (configuration not stated) | 189 to 191
46 | CN(C)CCN1C(=O)N2[C@H](c3cccc(O)c3)c3[nH]c4ccc(Br)cc4c3C[C@@]2(C)C1=O (racemic) | 286 to 288
47 | CCOC(=O)C(C)=NNc1ccc(C(O)(C(F)(F)F)C(F)(F)F)cc1 | 167 to 168
48 | CCCCCCCCCc1cnc(-c2ccc(O)c(F)c2)nc1 | 46 to 47.5
49 | CCOc1ccc(C(=O)N2CCNC2=Nc2c(Cl)cccc2Cl)cc1 | 146 to 148
50 | CCCCCCCCCCCCCCCCCCOc1cccc2c(O)cccc12 | 90 to 92
51 | Oc1ccc2cc(-c3noc4cc(O)ccc34)ccc2c1 | 280 to 282
52 | CCC(C)Cc1c(-c2ccc([N+](=O)[O-])cc2Cl)c(C)nc2ncnn12 (configuration not stated) | 158 to 162
